Assay results: patent publication US20080213175A1, “Click chemistry-derived cyclic peptidomimetics as integrin markers” (priority 2006, published 2008)
Values belong to the compound of their own block, whether it stands above or below them.

How the values were obtained:
[1] = tested on: tumor xenograft of either U87MG human glioblastoma or A431 human squamous cell carcinoma; details: mouse, in vivo
Method: PET Studies: In vivo microPET imaging of a tumor-bearing mouse is performed on an anesthetized mouse bearing tumor xenograft of either U87MG human glioblastoma or A431 human squamous cell carcinoma after administration of cyclic peptidomimetic. […] See e.g. FIG. 3-6.

[2] = tested on: integrin-positive M21 melanoma xenograft; details: integrin-positive M21 melanoma xenograft model; cited from earlier work
[3] = cited from earlier work
integrin = integrin (Homo sapiens, UniProt P05106+P06756); details: cited from earlier work
[4] = tested on: A431 human squamous cell carcinoma model; details: tumor cells integrin negative; cited from earlier work
[5] = biological target: T1, Integrin αvβ3 expressing U87MG cells (Homo sapiens, UniProt P05106+P06756); assay: Cell-based integrin binding competition assay; details: competition with 2 μM fluorescence labeled compound 18, 2 hrs
T1 construct: Integrin αvβ3 expressing U87MG cells; endogenous in cells; host or cells: U87MG
Method: Integrin αvβ3 expressing U87MG cells were incubated with a series of concentration of RGD compounds (0-32 μM) in the presence of 2 μM of green fluorescence labeled compound 18 for 2 hrs. After incubation, cells were washed three times to eliminate unbound RGD compounds. Fluorescence readings (RLU) were then taken (excitation at 491 nm, emission at 518 nm, cutoff 515 nm).
The results are consistent with that of surface plasmon resonance assay.

Integrin αvβ3 = Integrin αvβ3 (Homo sapiens, UniProt P05106+P06756); assay: Surface plasmon resonance (SPR) 'inverse' integrin αvβ3 assay; assay type: binding
Method: Compound 17 was immobilized onto a CM5 chip (Supplier: Biacore. CM5 is a SPR chip with a carboxymethylated dextran covalently attached to a gold surface) via amine coupling. Integrin αvβ3 samples at 25 nM concentration, premixed with a wide range of concentrations of RGD test compound (0˜1000 nm), were flowed through the CM5 chip at 14° C. The interactions between the flowing integrin αvβ3 sample and the surface of the chip were recorded by Biacore sensorgram signals. Flow cell #1 served as blank control and the flow cell #2 were coated with compound 17. After subtraction the blank signal of flow cell #1 from the signal of flow cell #2, the resulting sensorgram signals from each cycle were converted into percentage values. Then the Kd and IC50 values for each RGD compounds were calculated.

[6] = SPR, compared with RGDfK, FIG. 1

tumor uptake and retention [1]: good tumor uptake and retention | wash-out rate from muscle and other healthy tissues [1]: fast wash-out rate
SMILES: N=C(N)NCCC[C@@H]1NC(=O)[C@H](CCCCNC(=O)CCOCCOCCOCCOCCNC(=O)Cn2cc(CCCF)nn2)n2cc(nn2)[C@H](Cc2ccccc2)NC(=O)[C@H](CC(=O)O)NC(=O)CNC1=O [Compound 2]
renal clearance and liver uptake [1]: favorable renal clearance and very little liver uptake

SMILES: CC([18F])C(=O)NC[C@H]1OC(C(=O)NCCCC[C@@H]2NC(=O)C(Cc3ccccc3)NC(=O)[C@H](CC(=O)O)NC(=O)CNC(=O)[C@H](CCCNC(=N)N)NC2=O)[C@@H](O)C(O)C1O (stereo partly drawn) [[^18F]galacto-RGD]
tumor uptake [2]: integrin αvβ3-specific tumor uptake | activity accumulation in organs ([3]; both preclinical models and human studies): prominent activity accumulation in the liver, kidneys, spleen, and intestines | safety of administration ([3]; healthy volunteers and a limited number of cancer patients): could be safely administered to patients | pharmacokinetic behavior ([3]; human, in vivo): unfavorable pharmacokinetic behavior | tumor standard uptake values ([3]; human, in vivo): modest tumor standard uptake values | delineation of integrin-positive lesions ([3]; initial clinical trials): able to delineate certain lesions that were integrin-positive with reasonable contrast | integrin binding affinity (integrin): relatively low integrin binding affinity | visualization of integrin αvβ3 expression from tumor vasculature [4]: sensitive enough for visualization of integrin αvβ3 expression

tumor uptake and retention [1]: good tumor uptake and retention | wash-out rate from muscle and other healthy tissues [1]: fast wash-out rate
SMILES: N=C(N)NCCC[C@@H]1NC(=O)[C@H](CCCCNC(=O)CCN(CCC(=O)NCCCC[C@H]2C(=O)N[C@@H](CCCNC(=N)N)C(=O)NCC(=O)N[C@@H](CC(=O)O)C(=O)N[C@@H](Cc3ccccc3)c3cn2nn3)C(=O)CCOCCOCCOCCOCCNC(=O)Cn2cc(CCCF)nn2)n2cc(nn2)[C@H](Cc2ccccc2)NC(=O)[C@H](CC(=O)O)NC(=O)CNC1=O [Compound 3]
renal clearance and liver uptake [1]: favorable renal clearance and very little liver uptake

potency [5]: very similar in potency | binding affinity to integrin αvβ3 (Integrin αvβ3; 'inverse' SPR, compound 17 immobilized on CM5 chip, integrin αvβ3 25 nM, 14° C.): surprisingly high binding affinity | IC50 (Integrin αvβ3; [6]): very close to those of RGDfK | Kd (Integrin αvβ3; [6]): very close to those of RGDfK
SMILES: N=C(N)NCCC[C@@H]1NC(=O)[C@H](CCCCN)n2cc(nn2)[C@H](Cc2ccccc2)NC(=O)[C@H](CC(=O)O)NC(=O)CNC1=O [Compound 1]
